Data taken from US20240209022A1, “NOVEL PEPTIDE HAVING ANTI-INFLAMMATORY AND TISSUE REGENERATIVE ACTIONS” (KOREA RESEARCH INSTITUTE OF BIOSCIENCE AND BIOTECHNOLOGY, priority 2020, published 2024).

Columns and labels:
[1] = test system: animal model of metabolic disease accompanied by obesity/diabetes and chronic inflammation; assay: High-fat diet obesity/diabetic metabolic disease model; type: in vivo, C57BL/6J mice; details: for fasting blood glucose: after fasting for 16 hours at the end of the test; for blood glucose in insulin resistance experiment (ITT): after insulin administration, time as stated in the value; for blood glucose in insulin resistance experiment (ITT) / body weight / AUC value of the insulin resistance experiment / LDL-C level in blood / TC (total cholesterol) level in blood / abdominal fat: vs PBS buffer group; for body weight: oral, 3 weeks on high-fat diet; for maintenance of the decreased blood glucose in insulin resistance experiment: until 120 minutes after insulin
Procedure: An animal model of metabolic disease accompanied by obesity/diabetes and chronic inflammation was induced by feeding a high-fat diet.
The experiment in the groups administered with Amuc_1409 or PEP001 to PEP005 was performed using 8-week-old SPF male C57BL/6J mice, and the metabolic disease accompanied by obesity/diabetes and chronic inflammation was induced by ad libitum feeding of a high-fat diet for 45 weeks or 8 weeks. Specifically, mice fed a high-fat diet for 45 weeks were fed a high-fat diet for an additional 3 weeks, and Amuc_1409 was dissolved in PBS buffer at a concentration of 2.4 μM and then orally administered to the mice by 150 μL per animal at the same time once a day until the end of the experiment, or mice fed a high-fat diet for 8 weeks were fed a high-fat diet for an additional 3 weeks, and PEP001, PEP002, PEP003, PEP004, or PEP005 was dissolved in PBS buffer at a concentration of 2.4 μM and then orally administered to the mice by 150 μL per animal at the same time once a day until the end of the experiment. To the control group, PBS buffer was orally administered in the same manner.
For the experiment in the groups administered with PEP006 to PEP013, 8-week-old male C57BL/6J mice were used, and the metabolic disease accompanied by obesity/diabetes and chronic inflammation was induced by ad libitum feeding of a high-fat diet for 32, 50, or 53 weeks. Mice fed a high-fat diet for 32 weeks were fed a high-fat diet for an additional 3 weeks, and a novel tetrapeptide PEP006 was dissolved in PBS buffer at a concentration of 0.15 μg/150 μL (PEP006) and then orally administered to the mice by 150 μL per animal at the same time until the end of the test, mice fed a high-fat diet for 50 weeks were fed a high-fat diet for an additional 3 weeks, and a novel tetrapeptide PEP007, PEP008, PEP009, or PEP010 was dissolved in PBS buffer at a concentration of 0.2 μg/150 μL (PEP007 to PEP013) and then orally administered to the mice by 150 μL per animal at the same time until the end of the test, and mice fed a high-fat diet for 53 weeks were fed a high-fat diet for an additional 3 weeks, and a novel […] PEP011, PEP012, or PEP013 was dissolved in PBS buffer at a concentration of 0.2 μg/150 μL (PEP007 to PEP013) and then orally administered to the mice by 150 μL per animal at the same time until the end of the test. To the control group, PBS buffer was orally administered in the same manner.
For all animals, general symptoms were observed immediately before administration at the start of administration, and the body weight was measured until the end of the test after group separation.
Insulin (Humalog, 1 unit/kg) was intraperitoneally injected into mice fasted for 4 hours at 2 weeks after the start of test substance administration (2 weeks in groups administered with Amuc_1409 and PEP001 to PEP005 and 3 weeks in groups administered with PEP006 to PEP013), and then blood glucose at 30 minutes, 60 minutes, 90 minutes, and 120 minutes was measured from a small amount of blood obtained through a wound at the tip of the tail using ACCU-CHECK (Roche), thereby performing an insulin tolerance test (ITT).
At the end of the test, fasting blood glucose was measured from a small amount of blood obtained through a wound at the tip of the tail of the mouse fasted for 16 hours using ACCU-CHECK, and blood was collected from the orbital venous plexus using a heparin-treated capillary tube. The collected blood was immediately centrifuged at 10,000 rpm (4° C.) for 10 minutes to separate plasma, and then subjected to analysis of total cholesterol (TC) and low-density lipoprotein cholesterol (LDL-C), which are blood abnormal lipid indicators, using an automated blood biochemical analyzer.

[2] = test system: non-alcoholic hepatitis model; assay: High-fat diet-induced non-alcoholic steatohepatitis model, liver gene expression; type: in vivo, C57BL/6J mice; details: RT-qPCR; vs PBS buffer group
Procedure: A non-alcoholic hepatitis model was induced by feeding a high-fat diet to 8-week-old SPF male C57BL/6J mice. The experiment for groups administered with Amuc_1409 and PEP001 to PEP005 was performed as follows. Mice fed a high-fat diet for 45 weeks were fed a high-fat diet for an additional 3 weeks, and Amuc_1409 was dissolved in PBS buffer at a concentration of 2.4 μM and then orally administered to the mice by 150 μL per animal at the same time once a day until the end of the experiment, or mice fed a high-fat diet for 8 weeks were fed a high-fat diet for an additional 3 weeks, and PEP001, PEP002, PEP003, PEP004, or PEP005 was dissolved in PBS buffer at a concentration of 2.4 μM and then orally administered to the mice by 150 μL per animal at the same time once a day until the end of the experiment. To the control group, PBS buffer was orally administered in the same manner. The experiment for groups administered with PEP006 to PEP013 was performed as follows. The non-alcoholic hepatitis model was induced by ad libitum feeding of a high-fat diet for 32, 50, or 53 weeks. Mice fed a high-fat diet for 50 weeks were fed a high-fat diet for an additional 3 weeks, and a novel tetrapeptide PEP006, PEP007, PEP008, PEP009, or PEP010 was dissolved in PBS buffer at a concentration of 0.2 μg/150 μL and then orally administered to the mice by 150 μL per animal at the same time until the end of the test, and mice fed a high-fat diet for 53 weeks were fed a high-fat diet for an additional 3 weeks, and a novel […] PEP011, PEP012, or PEP013 was dissolved in PBS buffer at a concentration of 0.2 μg/150 μL and then orally administered to the mice by 150 μL per animal at the same time until the end of the test. To the control group, PBS buffer was orally administered in the same manner. At the end of the experiment, a part of the liver harvested was homogenized with Trizol to extract RNA. Reverse transcriptase was added to the obtained RNA and reacted to synthesize cDNA, and SYBR Green and primers were added to perform quantitative real-time PCR (RT-qPCR), and then the expression levels of genes such as Tnfα, Il-1β, Il-10, and Il-1rn were quantified.

Row | Substance | fasting blood glucose [1] | blood glucose in insulin resistance experiment (ITT) [1] | body weight [1] | AUC value of the insulin resistance experiment [1] | LDL-C level in blood [1] | TC (total cholesterol) level in blood [1] | abdominal fat [1] | 11-10, which is an anti-inflammatory index (liver gene expression) [2] | Il-1p gene expression in liver tissue [2] | Ifnγ gene expression in liver tissue [2] | Il-6 gene expression in liver tissue [2] | Tnfα gene expression in liver tissue [2] | maintenance of the decreased blood glucose in insulin resistance experiment [1]
1 | AVSSI (PEP002) | decreased | decreased at 30 minutes after insulin administration | decreased from the initial body weight | decreased | significantly decreased | decreased | decreased | tended to increase close to a significant level | significantly decreased |  |  |  | 
2 | VGAY (PEP010) |  | decreased to a significant level from 30 minutes to 120 minutes after insulin administration |  | decreased close to a significant level |  |  |  |  | significantly decreased | tended to decrease | tended to decrease | tended to decrease | 
3 | AQS [PEP011] |  | decreased close to a significant level from 30 minutes to 120 minutes after insulin administration |  | decreased close to a significant level |  |  |  |  | tended to decrease | tended to decrease |  |  | 
4 | AIS [PEP013] |  | decreased close to a significant level from 30 minutes to 120 minutes after insulin administration |  | decreased close to a significant level |  |  |  |  | significantly decreased | tended to decrease |  |  | 
5 | GAY [PEP005] | decreased | decreased at 30 minutes after insulin administration | significantly decreased | decreased | significantly decreased | tended to decrease | decreased | significantly increased | significantly decreased |  |  | significantly decreased | 
6 | AVSSIKGAY (PEP001) |  | decreased at 30 minutes after insulin administration | decreased from the initial body weight | decreased | significantly decreased | decreased | decreased | significantly increased | decreased close to a significant level |  |  |  | 
7 | AVS (AVSSIKGAY) [PEP004] | decreased | decreased at 30 minutes after insulin administration | significantly decreased | decreased | significantly decreased | tended to decrease | decreased | significantly increased | decreased close to a significant level |  |  | significantly decreased | significantly maintained until 120 minutes
8 | KGAY (PEP003) | decreased | decreased at 30 minutes after insulin administration | significantly decreased | decreased | significantly decreased | significantly decreased | decreased | significantly increased | significantly decreased |  |  | significantly decreased | significantly maintained until 120 minutes
9 | AGAY (PEP006) |  | decreased to a significant level from 30 minutes to 120 minutes after insulin administration |  | decreased close to a significant level |  |  |  |  |  |  |  | tended to decrease | 
10 | AGS [PEP012] |  | decreased close to a significant level from 30 minutes to 120 minutes after insulin administration |  | decreased close to a significant level |  |  |  |  | tended to decrease |  |  |  | 
11 | RGAY (PEP007) |  | decreased to a significant level from 30 minutes to 120 minutes after insulin administration |  | decreased close to a significant level |  |  |  |  |  | tended to decrease | tended to decrease | significantly decreased | 
12 | SGAY (PEP009) |  | decreased to a significant level from 30 minutes to 120 minutes after insulin administration |  | decreased close to a significant level |  |  |  |  | significantly decreased | tended to decrease | tended to decrease | tended to decrease | 
13 | IGAY (PEP008) |  | decreased to a significant level from 30 minutes to 120 minutes after insulin administration |  | significantly decreased |  |  |  |  | significantly decreased | decreased close to a significant level | tended to decrease | significantly decreased | 
